Measured values as given in PMC11206852, “Solubility, pH-Solubility Profile, pH-Rate Profile, and Kinetic Stability of the Tyrosine Kinase Inhibitor, Alectinib” (Pharmaceuticals, 2024).
Entries after “also recorded” stand apart in the source; their conditions may differ.

Assays:
[1] = set-up: method as in PMID 25153538; conditions: non-fasting conditions; cited from earlier work
[2] = sink conditions for dissolution test at pH 6.8 and 4.5; assay type: physicochemical; conditions: 37 °C, 24 h, dose 150 mg, media M1-M16
Experimental: The sink conditions are necessary to perform a successful dissolution test for oral solid dosage forms. […] Phosphate buffer (pH of 6.8) and acetate buffer (pH of 4.5) were prepared. Then, SLS, Tween 80, and ethanol were tried in different concentrations to achieve the target.

[3] = short-term (24 h) stability of solution in methanol; assay type: physicochemical; conditions: room temperature
[4] = set-up: method as in PMID 21575866; conditions: compared with free plasma concentration; cited from earlier work
[5] = pH stability and pH-rate profile; assay type: physicochemical; conditions: methanolic citrate buffer, pH 3.5, 5 and 6.2
Experimental: A citrate buffer at three pH values was prepared as described above (pH of 3.5, 5, and 6.2). […] The aim was to calculate the rate constant at each pH level and plot it against the pH values.

[6] = heat and accelerated stability study of solution in methanol; assay type: physicochemical
Experimental: Then, the rate constant of degradation at each temperature was calculated, and the shelf life of the solution at each temperature was calculated.

[7] = known description, no reference given; cited from earlier work
[8] = cited from earlier work
[9] = solubility study in water and different solvents; assay type: physicochemical; conditions: thermodynamic from solid
Experimental: Then, they were covered with aluminum foil to exclude the light effect. Then, all tubes were put in a water bath at 25 ± 1 °C and 50 rpm for 48 h to reach equilibrium. After that, the samples were filtered using a 0.22 µm filter, and 1 mL was injected into the HPLC. Any sample with a high reading was diluted with the mobile phase.

NCI-H2228 cell line = system: NCI-H2228 cell line; set-up: method as in PMID 25205428; conditions: oral administration, cited from earlier work
[10] = set-up: method as in PMID 23639470; conditions: 20 to 300 mg every 12 h; cited from earlier work
pH-solubility profile = assay type: physicochemical; conditions: for solubility at 48 h: aqueous buffer
Experimental: All buffers were at a concentration of 0.05 M. The experiment was performed in the same way as the previous experiment on solubility.

[11] = photostability in solution and solid state; assay type: physicochemical
[12] = cited from earlier work; remark: listed apart in the source
[13] = cited from earlier work; remark: listed apart in the source

## CCc1cc2c(cc1N1CCC(N3CCOCC3)CC1)C(C)(C)c1[nH]c3cc(C#N)ccc3c1C2=O.Cl [ALBHCL, 9-ethyl-6,6-dimethyl-8-[4-(morpholin-4-yl)piperidin-1-yl]-11-oxo-6,11-dihydro-5H-benzo[b]carbazole-3-carbonitrile-hydrochloride]
[1]
  increase of AUC: 20%
  increase of Cmax: 20%
[2]
  dissolution media that fulfilled sink conditions: phosphate buffer 6.8 + 2% SLS (M3), phosphate buffer 6.8 + 5% Tween 80 (M6), acetate buffer 4.5 + 2% SLS (M11), and acetate buffer 4.5 + 5% Tween 80 (M14)
[3]
  duration of stability of solutions: 24 h
[4]
  measured concentrations in the blood-cerebrospinal fluid (CSF) barrier: approximately equal to the free concentration of ALBHCl in plasma
[5]
  effect of pH on stability: increasing the pH would increase stability
[6]; extrapolated to 25 °C
  rate constant K1 (at 25 °C): 0.00075 h⁻¹
[6]; solution in methanol, 25 °C
  half-life: 38.5 days
[6]; solution in methanol, 25 °C, 0.105/K25
  shelf-life of solution: 140 h
[6]; solution in methanol, 50 °C
  rate constant of degradation (first-order) K50 °C: 0.01013 h⁻¹
[6]; solution in methanol, 55 °C
  rate constant of degradation (first-order) K55 °C: 0.01382 h⁻¹
[6]; solution in methanol, 60 °C
  rate constant of degradation (first-order) K60 °C: 0.02579 h⁻¹
[7]
  solubility in water, descriptive: practically insoluble
[8]
  adverse drug reaction: drug-induced liver injury: 1.3%
  adverse drug reaction: interstitial lung disease: 1.3%
  adverse drug reaction: photosensitivity reaction: 5.3%
  adverse drug reaction: stomatitis: 3.3%
  adverse drug reaction: weight gain: 9.9%
  nephrotoxicity: reported in rare cases
[8]; increased exposure, ref Pruis et al. 17
  bradycardia: linked to bradycardia
[9]; PEG 400, organic solvent or mixture, PEG400, 25 °C, read-out: solubility
  solubility at 48 h: 260 ± 6 µg/mL
[9]; organic solvent or mixture, DMSO, 25 °C, read-out: solubility
  solubility at 48 h: 4500 ± 6.1 µg/mL
[9]; organic solvent or mixture, THF, 25 °C, read-out: solubility
  solubility at 48 h: 280.9 ± 2.4 µg/mL
[9]; organic solvent or mixture, acetonitrile, 25 °C, read-out: solubility
  solubility at 48 h: 150.2 ± 1.1 µg/mL
[9]; organic solvent or mixture, chloroform, 25 °C, read-out: solubility
  solubility at 48 h: 620.3 ± 0.58 µg/mL
[9]; organic solvent or mixture, ethanol, 25 °C, read-out: solubility
  solubility at 48 h: 210 ± 4.5 µg/mL
[9]; organic solvent or mixture, methanol, 25 °C, read-out: solubility
  solubility at 48 h: 1991 ± 7.2 µg/mL
[9]; propylene glycol, organic solvent or mixture, PG, 25 °C, read-out: solubility
  solubility at 48 h: 211 ± 5.8 µg/mL
[9]; water, 25 °C, read-out: absolute solubility
  solubility at 48 h: 10.3 ± 1.2 µg/mL
NCI-H2228 cell line; NCI-H2228 cell line
  tumor regression: notable regression
NCI-H2228 cell line; tumor-bearing mice
  ED50 of tumor suppression: 0.46 mg/kg
[10]
  time of peak plasma levels after administration: 2.00 to 4.61 h
pH-solubility profile; pH 3.5, citrate buffer 0.05 M
  solubility at 48 h: 50 µg/mL
pH-solubility profile; pH 5, citrate buffer 0.05 M
  solubility at 48 h: 25.8 µg/mL
pH-solubility profile; pH 1.2, chloride buffer, chromatogram after 24 h
  stability at pH 1.2: showed degradation; also recorded: instability
pH-solubility profile; pH 1.2 to 10
  pH of maximum solubility: 3.5
[11]; solid powder, 36 h light
  remained intact after exposure to light: 82%
[11]; solid powder, light, up to 36 h
  recovery from analysis of the powder: 99%
[11]; solution in methanol exposed to light, solution, light, room temperature, read-out: half-life of photodegradation (converted)
  half-life at 50 µg/mL: 0.346 days
[11]; solution in methanol, 36 h light
  intact ALBHCL remaining after exposure to light: 32%
[11]; solution, light
  rate constant of photodegradation (first-order) K: 0.0829 h⁻¹
[12]
  lipophilicity: highly lipophilic
[12]; no method or reference given
  logP: 5.5
[13]
  route of most elimination: feces
